From US20050222173A1, “Triazolopyrimidines” (priority 2002, published 2005)

Legend:
Pyricularia oryzae = format: in vivo; conditions: rice, protective, application rate 250 g/ha, evaluation 6 days after inoculation
Podosphaera leucotricha = experiment: Podosphaera test (apple)/protective; format: in vivo; conditions: protective, application rate 100 g/ha, evaluation 10 days after inoculation; for pest or weed control at 100 g/ha: Podosphaera leucotricha, 240 h, read-out: Efficacy in %
Experimental: Podosphaera Test (Apple)/Protective [table] […] To test for protective activity, young plants are sprayed with the preparation of active compound at the stated application rate. After the spray coating has dried on, the plants are inoculated with an aqueous spore suspension of the apple mildew pathogen Podosphaera leucotricha. The plants are then placed in a greenhouse at about 23° C. and a relative atmospheric humidity of about 70%.

Venturia inaequalis = experiment: Venturia test (apple)/protective; format: in vivo; conditions: protective, application rate 100 g/ha, evaluation 10 days after inoculation; for pest or weed control at 100 g/ha: Venturia inaequalis, 240 h, read-out: Efficacy in %
Experimental: Venturia Test (Apple)/Protective [table] To produce a suitable preparation of active compound, 1 part by weight of active compound is mixed with the stated amounts of solvent and emulsifier, and the concentrate is diluted with water to the desired concentration. To test for protective activity, young plants are sprayed with the preparation of active compound at the stated application rate. […] The plants are then placed in a greenhouse at about 21° C. and a relative atmospheric humidity of about […].

C[C@H](Nc1c(-c2ccccc2Cl)c(Cl)nc2nc(Cl)nn12)C(F)(F)F
Efficacy in % (Pyricularia oryzae): 100%

CC(C)Nc1c(-c2ccccc2Cl)c(Cl)nc2nc(Cl)nn12 [Example 1, N-[2,5-dichloro-6-(2-chlorophenyl)[1,2,4]triazolo[1,5-a]pyrimidin-7-yl]-N-isopropylamine]
chromatographic logP (physchem): 3.43

Clc1nc2nc(Cl)c(-c3ccccc3Cl)c(Cl)n2n1 [Example 177, 2,5,7-trichloro-6-(2-chlorophenyl)[1,2,4]triazolo[1,5-a]pyrimidine]
chromatographic logP (physchem): 3.37

Clc1ccccc1-c1c(Cl)nc2nc(Br)nn2c1Cl [Example 178, 2-Bromo-5,7-dichloro-6-(2-chlorophenyl)[1,2,4]triazolo[1,5-a]pyrimidine]
chromatographic logP (physchem): 3.39

Fc1cc(F)c(-c2c(Cl)nc3nc(Cl)nn3c2Cl)c(F)c1 [Example 179, 2,5,7-Trichloro-6-(2,4,6-trifluorophenyl)[1,2,4]triazolo[1,5-a]pyrimidine]
chromatographic logP (physchem): 3.28

Fc1cc(F)c(-c2c(Cl)nc3nc(Br)nn3c2Cl)c(F)c1 [Example 180, 2-Bromo-5,7-dichloro-6-(2,4,6-trifluorophenyl)[1,2,4]triazolo[1,5-a]pyrimidine]
chromatographic logP (physchem): 3.27

Fc1cccc(Cl)c1-c1c(Cl)nc2nc(Cl)nn2c1N1CCCC1 [drawing 43]
pest or weed control at 100 g/ha (Podosphaera leucotricha): 93%

C=CCN(CC)c1c(-c2c(F)cccc2Cl)c(Cl)nc2nc(Cl)nn12 [drawing 44]
pest or weed control at 100 g/ha (Podosphaera leucotricha): 95%

CC(C)CNc1c(-c2c(F)cccc2Cl)c(Cl)nc2nc(Cl)nn12 [drawing 45]
pest or weed control at 100 g/ha (Podosphaera leucotricha): 100%

Fc1cccc(Cl)c1-c1c(Cl)nc2nc(Cl)nn2c1NCC1CC1 [drawing 46]
pest or weed control at 100 g/ha (Podosphaera leucotricha): 100%

COCCN(C)c1c(-c2c(F)cccc2Cl)c(Cl)nc2nc(Cl)nn12 [drawing 47]
pest or weed control at 100 g/ha (Podosphaera leucotricha): 100%

C=C(C)CN(C)c1c(-c2c(F)cccc2Cl)c(Cl)nc2nc(Cl)nn12 [drawing 48]
Efficacy in % (Podosphaera leucotricha): 100%

COc1nc2nc(Cl)c(-c3c(F)cc(F)cc3OC)c(NC(C)C(F)(F)F)n2n1 (centres unmarked) [drawing 49]
pest or weed control at 100 g/ha (Podosphaera leucotricha): 83%

C[C@@H](Nc1c(-c2ccccc2Cl)c(Cl)nc2nc(Cl)nn12)C(F)(F)F [drawing 50]
pest or weed control at 100 g/ha (Venturia inaequalis): 100%

C[C@@H](Nc1c(-c2c(F)cc(F)cc2F)c(Cl)nc2nc(Cl)nn12)C(F)(F)F [drawing 51]
pest or weed control at 100 g/ha (Venturia inaequalis): 100%

CC(C)Nc1c(-c2ccccc2Cl)c(Cl)nc2nc(Br)nn12 [drawing 52]
pest or weed control at 100 g/ha (Venturia inaequalis): 98%

CCC(C)CNc1c(-c2c(F)cc(F)cc2F)c(Cl)nc2nc(Cl)nn12 (centres unmarked) [drawing 53]
pest or weed control at 100 g/ha (Venturia inaequalis): 83%

CCC(C)CNc1c(-c2c(F)cc(F)cc2F)c(Cl)nc2nc(Br)nn12 (centres unmarked) [drawing 54]
pest or weed control at 100 g/ha (Venturia inaequalis): 80%

Clc1nc2nc(Cl)c(-c3ccccc3Cl)c(NCC3CC3)n2n1 [drawing 55]
pest or weed control at 100 g/ha (Venturia inaequalis): 96%

C[C@H](Nc1c(-c2c(F)cc(F)cc2F)c(Cl)nc2nc(Br)nn12)C(F)(F)F [drawing 56]
pest or weed control at 100 g/ha (Venturia inaequalis): 99%

CC1CCCN(c2c(-c3c(F)cc(F)cc3F)c(Cl)nc3nc(Cl)nn23)C1 (centres unmarked) [drawing 57]
pest or weed control at 100 g/ha (Venturia inaequalis): 96%

CC(C)CNc1c(-c2ccc(F)cc2F)c(Cl)nc2nc(Cl)nn12 [drawing 58]
pest or weed control at 100 g/ha (Venturia inaequalis): 85%

C[C@H](Nc1c(-c2c(F)cccc2Cl)c(Cl)nc2nc(Cl)nn12)C(F)(F)F [drawing 59]
pest or weed control at 100 g/ha (Venturia inaequalis): 100%

Fc1ccc(-c2c(Cl)nc3nc(Cl)nn3c2N[C@@H](Cl)C(F)(F)F)c(F)c1 [drawing 60]
pest or weed control at 100 g/ha (Venturia inaequalis): 100%

Fc1cccc(Cl)c1-c1c(Cl)nc2nc(Cl)nn2c1N1CCCC1 [drawing 61]
pest or weed control at 100 g/ha (Venturia inaequalis): 85%

C=CCN(CC)c1c(-c2c(F)cccc2Cl)c(Cl)nc2nc(Cl)nn12 [drawing 62]
pest or weed control at 100 g/ha (Venturia inaequalis): 96%

CC(C)CNc1c(-c2c(F)cccc2Cl)c(Cl)nc2nc(Cl)nn12 [drawing 63]
pest or weed control at 100 g/ha (Venturia inaequalis): 91%

Fc1cccc(Cl)c1-c1c(Cl)nc2nc(Cl)nn2c1NCC1CC1 [drawing 64]
pest or weed control at 100 g/ha (Venturia inaequalis): 99%

COCCN(C)c1c(-c2c(F)cccc2Cl)c(Cl)nc2nc(Cl)nn12 [drawing 65]
pest or weed control at 100 g/ha (Venturia inaequalis): 96%

C=C(C)CN(C)c1c(-c2c(F)cccc2Cl)c(Cl)nc2nc(Cl)nn12 [drawing 66]
Efficacy in % (Venturia inaequalis): 84%

COc1nc2nc(Cl)c(-c3c(F)cc(F)cc3OC)c(NC(C)C(F)(F)F)n2n1 (centres unmarked) [drawing 67]
pest or weed control at 100 g/ha (Venturia inaequalis): 99%

C[C@H](Nc1c(-c2c(F)cccc2Cl)c(Cl)nc2nc(Cl)nn12)C(F)(F)F [drawing 69]
Efficacy in % (Pyricularia oryzae): 100%
